Legend:
Plasmopara viticola = experiment: Example J: Plasmopara test (grapevines)/preventive; format: in vivo; details: grapevine plants, preventive spray, 10 ppm of active ingredient, evaluated 6 days after inoculation
Description: Example J: Plasmopara Test (Grapevines)/Preventive
To produce a suitable preparation of active compound, 1 part by weight of active compound is mixed with the stated amounts of solvent and emulsifier, and the concentrate is diluted with water to the desired concentration.
To test for preventive activity, young plants are sprayed with the preparation of active compound at the stated rate of application. After the spray coating has dried on, the plants are inoculated with an aqueous spore suspension of Plasmopara viticola and then remain for 1 day in an incubation cabinet at approximately 20° C. and a relative atmospheric humidity of 100%. The plant is subsequently placed for 4 days in a greenhouse at approximately 21° C. and a relative atmospheric humidity of approximately 90%. The plants are then misted and placed for 1 day in an incubation cabinet.
The test is evaluated 6 days after the inoculation. 0% means an efficacy which corresponds to that of the untreated control, while an efficacy of 100% means that no disease is observed.

Phytophthora infestans = format: in vivo; details: tomato plants, preventive spray (DMF/alkylaryl polyglycol ether), 500 ppm of active ingredient, evaluated 7 days after inoculation
[1] = pH 2.7
Description: Measurement of IogP values was performed according EEC directive 79/831 Annex V.A8 by HPLC (High Performance Liquid Chromatography) on reversed phase columns with the following methods:
Measurement of LC-MS was done at pH 2.7 with 0.1% formic acid in water and with acetonitrile (contains 0.1% formic acid) as eluent with a linear gradient from 10% acetonitrile to 95% acetonitrile.
Calibration was done with not branched alkan2-ones (with 3 to 16 carbon atoms) with known logP-values (measurement of logP values using retention times with linear interpolation between successive alkanones). lambda-maX-values were determined using UV-spectra from 200 nm to 400 nm and the peak values of the chromatographic signals.

## CCCCCOC(=O)Nc1ccn(CO/N=C(/c2ccccc2)c2nc(=O)on2C)n1 [Example 7, pentyl {1-[({[(Z)-(2-methyl-5-oxo-2,5-dihydro-1,2,4-oxadiazol-3-yl)(phenyl)methylene]amino}oxy)methyl]-1H-pyrazol-3-yl}carbamate]
Plasmopara viticola
  Eff. %: 85%
Phytophthora infestans
  Eff. %: 100%
[1]
  chromatographic logP: 3.06

Reference: patent US9743665B2, “Fungicidal 3-{phenyl[heterocyclylmethoxy)imino]methyl}-oxadiazolone derivatives” (BAYER CROPSCIENCE AKTIENGESELLSCHAFT, priority 2013, dated 2017)
